Source: ChEMBL document CHEMBL4699434, “Fenretinide binding to the lysosomal protein saposin D alters ceramide solubilization and hydrolysis” (RSC Med Chem, 2020)
Activity calls are given as the source filed them. No cut-off for these calls is given here.

Columns and labels:
[1] = molecular target: T1, Prosaposin (Homo sapiens) (UniProt P07602); assay: Binding affinity to human saposin D (1 to 81 residues) expressed in Escherichia coli assessed as association constant at equilibrium at 25 degree C by fluorescence quenching spectroscopy
T1 sequence (whole entry): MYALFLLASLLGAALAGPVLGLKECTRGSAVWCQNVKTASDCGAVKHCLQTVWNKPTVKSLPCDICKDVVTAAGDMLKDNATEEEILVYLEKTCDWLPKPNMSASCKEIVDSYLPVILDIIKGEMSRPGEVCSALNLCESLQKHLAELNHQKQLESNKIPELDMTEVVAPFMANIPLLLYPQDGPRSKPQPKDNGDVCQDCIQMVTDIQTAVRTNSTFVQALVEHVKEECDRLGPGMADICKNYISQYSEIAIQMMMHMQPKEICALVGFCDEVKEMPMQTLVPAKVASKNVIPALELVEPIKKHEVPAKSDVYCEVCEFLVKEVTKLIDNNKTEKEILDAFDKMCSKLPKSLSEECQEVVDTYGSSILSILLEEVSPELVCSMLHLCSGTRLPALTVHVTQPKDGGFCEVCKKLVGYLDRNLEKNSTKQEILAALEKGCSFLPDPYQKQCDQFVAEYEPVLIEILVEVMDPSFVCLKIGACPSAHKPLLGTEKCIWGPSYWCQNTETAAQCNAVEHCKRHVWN

[2] = molecular target: T2, Acid ceramidase (Homo sapiens) (UniProt Q13510); assay: Inhibition of acid ceramidase (unknown origin) assessed as inhibition of ceramide hydrolysis preincubated for 30 mins followed by ceramide addition measured after 72 hrs by HPLC analysis
T2 sequence (whole entry): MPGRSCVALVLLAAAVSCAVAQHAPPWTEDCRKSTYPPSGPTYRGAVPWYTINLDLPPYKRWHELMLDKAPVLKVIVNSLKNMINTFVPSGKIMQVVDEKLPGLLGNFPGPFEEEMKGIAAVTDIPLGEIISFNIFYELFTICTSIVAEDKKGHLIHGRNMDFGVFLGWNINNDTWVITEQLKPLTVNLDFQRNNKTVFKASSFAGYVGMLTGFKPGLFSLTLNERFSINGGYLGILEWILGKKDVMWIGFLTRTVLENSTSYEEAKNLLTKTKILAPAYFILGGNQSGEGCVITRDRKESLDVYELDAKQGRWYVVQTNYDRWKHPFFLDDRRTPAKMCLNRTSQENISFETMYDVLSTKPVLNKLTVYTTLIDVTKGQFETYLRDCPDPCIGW

[3] = molecular target: T1, Prosaposin (Homo sapiens); assay: Binding affinity to human saposin D (1 to 81 residues) expressed in Escherichia coli complexed with CerPO4 assessed as decrease in ceramide hydrolysis using ceramide as counter-substrate preincubated the protein-ceramide complex for 30 mins measured after 24 hrs in presence of acid ceramidase by HPLC analysis
[4] = molecular target: T1, Prosaposin (Homo sapiens); assay: Binding affinity to human saposin D (1 to 81 residues) expressed in Escherichia coli complexed with CerOH assessed as decrease in ceramide hydrolysis using ceramide as counter-substrate measured after 24 hrs in presence of acid ceramidase by fluorescence quenching spectroscopy
[5] = molecular target: T1, Prosaposin (Homo sapiens); assay: Binding affinity to human saposin D (1 to 81 residues) expressed in Escherichia coli assessed as decrease in BODIPY-TR labeled ceramide solubilization in sodium phosphate buffer measured after 30 mins by fluorescence assay
[6] = molecular target: T1, Prosaposin (Homo sapiens); assay: Binding affinity to human saposin D (1 to 81 residues) expressed in Escherichia coli assessed as association constant at equilibrium at 25 degree C by electronic absorption spectroscopy
[7] = molecular target: T1, Prosaposin (Homo sapiens); assay: Binding affinity to human saposin D (1 to 81 residues) expressed in Escherichia coli assessed as inhibition of ceramide hydrolysis preincubated for 30 mins followed by ceramide addition measured after 72 hrs by HPLC analysis
Prosaposin [8] = molecular target: T3, Prosaposin (Homo sapiens, UniProt P07602); assay: Binding affinity to human saposin D (1 to 81 residues) expressed in Escherichia coli at 25 degree C by fluorescence quenching spectroscopy
T3 sequence (P07602 whole entry): T1 sequence (whole entry)

Prosaposin [9] = molecular target: T3, Prosaposin; assay: Binding affinity to human saposin D (1 to 81 residues) expressed in Escherichia coli at 25 degree C by electronic absorption spectroscopy

CC1=C(/C=C/C(C)=C/C=C/C(C)=C/C(=O)Nc2ccc(O)cc2)C(C)(C)CCC1 [FENRETINIDE]
Ka [1]: 1.45 10^5/M | inhibition [2]: Active | Activity [3]: Active | Activity [4]: Active | Activity [5]: inactive | Ka [6]: 1.45 10^5/M | inhibition [7]: Active | Kd (Prosaposin [8]): 6.9 µM | Kd (Prosaposin [9]): 6.9 µM
